Reference: PMC11448233, “High-throughput screening identification of apigenin that reverses the colistin resistance of mcr-1-positive pathogens” (Microbiology Spectrum, 2024)

Key:
mcr-1 protein [1] = biological target: T1, mcr-1 protein (Escherichia coli, UniProt A0A0R6L508); experiment: microscale thermophoresis; format: binding
T1 construct: gene mcr1; mcr-1 amplified from K. pneumoniae ZJ02, pET28a(+) NheI/XhoI, E. coli BL21(DE3), Ni-NTA; tag removal not mentioned

mcr-1 protein [2] = biological target: T1, mcr-1 protein; experiment: nano differential scanning fluorimetry; format: binding; details: apigenin 32 µg/mL, mcr-1 100 µg/mL, PBS, 20 min incubation, 25-95 °C at 5 °C/min; Tm lowered (destabilised)

T1 sequence (A0A0R6L508 whole entry): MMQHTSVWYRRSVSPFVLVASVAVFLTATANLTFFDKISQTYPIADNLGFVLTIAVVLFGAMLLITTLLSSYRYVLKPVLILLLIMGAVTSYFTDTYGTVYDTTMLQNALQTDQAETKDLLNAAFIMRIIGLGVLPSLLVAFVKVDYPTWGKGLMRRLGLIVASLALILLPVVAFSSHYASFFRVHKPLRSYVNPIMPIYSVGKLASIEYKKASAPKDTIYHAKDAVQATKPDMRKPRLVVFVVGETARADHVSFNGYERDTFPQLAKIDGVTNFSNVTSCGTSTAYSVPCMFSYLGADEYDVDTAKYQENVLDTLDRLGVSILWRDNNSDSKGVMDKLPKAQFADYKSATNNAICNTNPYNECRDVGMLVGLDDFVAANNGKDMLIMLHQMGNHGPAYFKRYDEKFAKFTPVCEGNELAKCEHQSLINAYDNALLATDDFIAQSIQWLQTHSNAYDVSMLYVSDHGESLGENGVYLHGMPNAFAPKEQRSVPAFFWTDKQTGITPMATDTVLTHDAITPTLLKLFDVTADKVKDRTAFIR

O=c1cc(-c2ccc(O)cc2)oc2cc(O)cc(O)c12 [apigenin]
Kd (mcr-1 protein [1]): 4.35 µM | Tm decrease (mcr-1 protein [2]): 5.7 °C
